Test in all cases: [3H]glycine transport by GlyT2 mutant in COS7 cells
Common to all, as to assay type: cell-based

One assay addresses T1, GlyT2 W217F mutant (Rattus norvegicus, UniProt P58295, W217F).
T1 construct: expressed in transfected cells; host or cells: COS7
T1 sequence (P58295 1-799 W217F): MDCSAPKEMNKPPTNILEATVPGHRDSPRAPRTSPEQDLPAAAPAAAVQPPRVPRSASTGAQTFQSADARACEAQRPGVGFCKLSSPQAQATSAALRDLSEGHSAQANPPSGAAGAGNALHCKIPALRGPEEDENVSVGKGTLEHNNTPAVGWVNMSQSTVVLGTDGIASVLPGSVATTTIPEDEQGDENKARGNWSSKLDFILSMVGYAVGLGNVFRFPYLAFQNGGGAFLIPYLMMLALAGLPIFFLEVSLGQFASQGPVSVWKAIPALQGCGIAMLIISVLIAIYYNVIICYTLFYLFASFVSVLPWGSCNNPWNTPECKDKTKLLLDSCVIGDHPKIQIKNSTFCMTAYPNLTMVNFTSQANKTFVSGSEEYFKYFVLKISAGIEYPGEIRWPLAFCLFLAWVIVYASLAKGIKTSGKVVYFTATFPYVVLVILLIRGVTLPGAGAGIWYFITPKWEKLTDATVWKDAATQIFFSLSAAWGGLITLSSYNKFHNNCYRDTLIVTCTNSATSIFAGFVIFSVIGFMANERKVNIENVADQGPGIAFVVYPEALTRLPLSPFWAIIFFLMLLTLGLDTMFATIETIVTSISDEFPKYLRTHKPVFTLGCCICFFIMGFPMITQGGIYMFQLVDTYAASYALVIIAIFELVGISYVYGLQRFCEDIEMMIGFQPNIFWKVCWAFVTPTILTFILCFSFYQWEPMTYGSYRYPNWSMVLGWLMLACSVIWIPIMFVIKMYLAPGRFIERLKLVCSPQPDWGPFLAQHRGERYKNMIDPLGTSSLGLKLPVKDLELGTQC
An excerpt: (§1) To validate the predicted interactions between the inhibitors and GlyT2, we used systematic site-directed mutagenesis to construct substitution mutants of the potential residues involved in ligand binding. […] The GlyT2 residues predicted to interact with the inhibitors through its side chain were replaced by amino acids expected to force the loss of the interaction. In the cases where the interaction occurred through the backbone, the inserted amino acid sought to alter the disposition of the substituted residue to lose the coordination.
(§2) Substitution mutants were generated with the QuikChange II Site-Directed Mutagenesis kit (Agilent Technologies, Santa Clara, CA, USA), using rGlyT2 or rGlyT1 subcloned in pCDNA3.[47] The complete coding region of all of the constructs was sequenced to verify that only the desired mutation had been introduced. […] COS7 cells were grown and transfected using Turbofect Transfection Reagent (Thermo Fisher Scientific, Waltham, MA, USA), following the manufacturer’s protocol (2 μL reagent/μg of DNA). Cells were incubated for 48 h at 37 °C until used.
(§3) At the end of the desired time (usually 10 min), reactions were washed and terminated by aspiration. […] A nonlinear curve fitting method was used to obtain IC50 values using Graphpad Prism software, version 6.0, Graphpad, San Diego, CA, USA.

The target of the next assay is T2, GlyT2 S640C mutant (Rattus norvegicus, UniProt P58295, S640C).
T2 construct: expressed in transfected cells; host or cells: COS7
T2 sequence (P58295 1-799 S640C): T1 sequence (P58295 1-799 W217F) with F217W, S640C
Conditions: read-out: IC50 (Table S1).
Description: as §1, §2, §3

The target in a further assay is T3, GlyT2 A639C mutant (Rattus norvegicus, UniProt P58295, A639C).
T3 construct: expressed in transfected cells; host or cells: COS7
T3 sequence (P58295 1-799 A639C): T1 sequence (P58295 1-799 W217F) with F217W, A639C
Description: as §1, §2, §3

Numbering of substitutions follows the chain as printed. Where two headings read alike, the source gives them in different places.

The IC50 is the concentration at which inhibition is half-maximal.

As to `COc1cc(C(=O)NCC2(N(C)C)CCCC2)cc(OC)c1OCc1ccccc1` [ORG25543, N-[[1-(dimethylamino)cyclopentyl]methyl]-3,5-dimethoxy-4-(phenylmethoxy)benzamide], the IC50 was 93 ± 7 nM against GlyT2 W217F mutant, 130 ± 6 nM on GlyT2 S640C mutant and 51 ± 2 nM against GlyT2 A639C mutant. Besides, at GlyT2 W217F mutant (W217F, 1 μM inhibitor, 20 μM glycine), the “effect of mutation on inhibition of glycine transport” value is “selectively reduced ORG25543 inhibition”.
In the case of `N[C@@H](COC(c1cccc(F)c1)c1ccccc1OCc1ccccc1)C(=O)O` (stereo partly shown) [ALX1393], the IC50 on GlyT2 W217F mutant (read-out: IC50 (Table S1)) was 23 ± 5 nM; at GlyT2 S640C mutant, 30 ± 7 nM; on GlyT2 A639C mutant (read-out: IC50 (Table S1)), 22 ± 4 nM.

For the origin of these results see paper PMC8691691 (ACS Chemical Neuroscience, 2021).
